Patent US9974776B2, “Estrogen receptor beta agonists for use in treating mesothelioma” (Karo Pharma AB, priority 2013, dated 2018)
Read-outs that look alike come from different tables or passages of the source.

How the values were obtained:
MET5A cells = assay: Proliferation assay in non-malignant mesothelial MET5A cells; type: cell-based; settings: 24 hours treatment
Procedure: (§1) Cells were seeded at a density of 10×10^4 cells/well in 6-well plates in RPMI medium supplemented with 10% FBS, 100 μg/ml streptomycin and 10 μg/ml penicillin and incubated over-night at 37° C. in a humidified environment containing 5% CO2 to allow adherence. Following treatment cells were trypsinized and stained with Trypan blue. The number of cells considered viable (unstained cells) was counted in a Bürker haemocytometer within 5 minutes after staining.
Cell cultures were pretreated with Compound (I) for 1-16 hours (depending on experiment) followed by wash-off and then replenished with normal growth medium±cisplatin, pemetrexed or cisplatin/pemetrexed. Total incubation time was 24-72 hours (depending on experiment). Control cultures were maintained in normal growth medium without added drug. The number of viable cells was determined as described for the proliferation assay.

PARP1 cleavage = assay: Western blot of PARP1 cleavage in REN cells; type: cell-based, human; settings: agent alone
Procedure: Cells were extracted with 1% NP-40 lysis buffer (1% NP-40, 150 mM NaCl, 50 mM Tris-HCl pH 8.5 mM EDTA, 10 mM NaF, 10 mM Na4P2O7, 0.4 mM Na3VO4) with freshly added protease inhibitors (10 μg/ml leupeptin, 4 μg/ml pepstatin and 0.1 Unit/ml aprotinin). For protein extraction from tissues, ˜100 mg of each sample were homogenized, using a Potter-Elvehjem homogenizer device, in 1% NP-40 lysis buffer. Lysates were centrifuged at 13.000×g for 10 minutes at 4° C. and the supernatants were collected and assayed for protein concentration with the Bio-Rad protein assay method.
Proteins were separated by SDS-PAGE under reducing conditions. Following SDS-PAGE, proteins were transferred to nitrocellulose, reacted with specific antibodies and then detected with peroxidase-conjugate secondary antibodies and chemioluminescent ECL reagent. Densitometric analysis was performed using the GS 250 Molecular Image (Bio-Rad).
Levels of PARP1, cleaved PARP1, AKT and phosphorylated AKT in REN cells treated for 24 hours with cisplatin (25, 50 and 100 μM) or pre-treated 2 hours with Compound (I) (10 nM) followed by wash-off and continued growth in normal medium±cisplatin (25, 50 and 100 μM), for an additional 24 hours were also determined by Western blot analysis and relative densitometry. Total AKT and Tubulin staining were used for normalization. PARP1 cleavage was analysed as it is an indicator of apoptotic cell death. As increased AKT activity has been implicated in the control of proliferation, apoptosis and cisplatin resistance (Pinton G., et al, PLoS One (2012) 7:e36856), AKT activation status following different treatments was also analysed.

REN cells = assay: Proliferation assay (Trypan blue viable cell count; wash-off and add-on experiments) in REN cells; type: cell-based, human; settings: concentrations used in Example 2(a), said in b159 to be the respective IC50 concentrations, read-out: IC50 concentration in REN cells
Procedure: as §1
Control cultures were maintained in normal growth medium without added drug. The number of viable cells was determined as described for the proliferation assay.
In the add-on experiments the second drug was added directly to the cell culture medium without wash-off of the first drug. […] Control cultures were maintained in normal growth medium without added drug. The number of viable cells was determined as described for the proliferation assay.

| Structure (SMILES) | IC50 (MET5A cells) [µM] | PARP1 cleavage, single agent (PARP1 cleavage) | IC50 (REN cells) [µM] | IC50 (REN cells; Homo sapiens) [µM] |
| --- | --- | --- | --- | --- |
| N.N.[Cl][Pt][Cl] [cisplatin, reference compound] | 25 | neither cisplatin nor Compound (I) alone resulted in significant PARP1 cleavage | 100 | – |
| Nc1nc2[nH]cc(CCc3ccc(C(=O)N[C@@H](CCC(=O)O)C(=O)O)cc3)c2c(=O)[nH]1 [pemetrexed, reference compound] | – | – | – | 22 |
